Species on record: Rattus norvegicus
Assay: Open TG-GATES - Regimen: Daily Repeat
Type: toxicity, organism-based, Sprague-Dawley
Parameters: regimen Daily Repeat, gender Male, age 6 weeks
Settings: in vivo, po, 1000 mg/kg, route gavage, dose level High; for APTT / Bas / Eos / Fbg / Hb / Ht / Lym / MCH / MCHC / MCV / Mono / Neu / PT / Plat / RBC / Ret / WBC: tissue Blood; for KIDNEY_L / KIDNEY_R / KIDNEY_TOTAL: tissue Kidney; for LIVER: tissue Liver; for A/G / ALP / ALT / AST / BUN / CRE / Ca / Cl / DBIL / GLC / IP / K / LDH / Na / PL / RALB / TBIL / TC / TG / TP / gamma-GTP: tissue Plasma

With `C[C@H]1O[C@H](O[C@H]2[C@H](O)[C@@H](O)[C@@H](O[C@H]3[C@H](O)[C@@H](O)C(O)O[C@@H]3CO)O[C@@H]2CO)[C@H](O)[C@@H](O)[C@@H]1N[C@H]1C=C(CO)[C@@H](O)[C@H](O)[C@H]1O` (some centres not stated) [ACARBOSE] the TERMINAL_BW (72 h, time 3 day) was 230.8 g, the APTT (72 h, time 3 day) was 17.8 s and the Bas (72 h, time 3 day) was 0%. The Eos (72 h, time 3 day) was 1%, the Fbg (72 h, time 3 day) was 308.6 mg/dL and the Hb (72 h, time 3 day) was 13.5 g/dL. For the same molecule, the Ht (72 h, time 3 day) was 40.6%, the Lym (72 h, time 3 day) was 75.8% and the MCH (72 h, time 3 day) was 21.2 pg. The MCHC (72 h, time 3 day) was 33.3%, the MCV (72 h, time 3 day) was 63.7 fL and the Mono (72 h, time 3 day) was 2.8%. The Neu (72 h, time 3 day) was 19.6%, the PT (72 h, time 3 day) was 13 s and the Plat (72 h, time 3 day) was 118.2 x10_4/uL. For the same molecule, the RBC (72 h, time 3 day) was 638.2 x10_4/ul, the Ret (72 h, time 3 day) was 6.9% and the WBC (72 h, time 3 day) was 90.6 x10_2/uL. The KIDNEY_L (72 h, time 3 day) was 1 g, the KIDNEY_R (72 h, time 3 day) was 1 g and the KIDNEY_TOTAL (72 h, time 3 day) was 2 g. For the same molecule, the LIVER (72 h, time 3 day) was 10.9 g, the A/G (72 h, time 3 day) was 0.9 and the ALP (72 h, time 3 day) was 1494.4 IU/L. For the same molecule, the ALT (72 h, time 3 day) was 46.8 IU/L, the AST (72 h, time 3 day) was 74 IU/L and the BUN (72 h, time 3 day) was 13.4 mg/dL. It also gave a CRE (72 h, time 3 day) of 0.2 mg/dL, a Ca (72 h, time 3 day) of 10.7 mg/dL and a Cl (72 h, time 3 day) of 104.2 meq/L. The DBIL (72 h, time 3 day) was 0.012 mg/dL, the GLC (72 h, time 3 day) was 169.8 mg/dL and the IP (72 h, time 3 day) was 7.7 mg/dL. For the same molecule, the K (72 h, time 3 day) was 3.9 meq/L, the LDH (72 h, time 3 day) was 95.2 IU/L and the Na (72 h, time 3 day) was 140 meq/L. It also gave a PL (72 h, time 3 day) of 140 mg/dL, an RALB (72 h, time 3 day) of 2.6 g/dL and a TBIL (72 h, time 3 day) of 0.062 mg/dL. It also gave a TC (72 h, time 3 day) of 75.2 mg/dL, a TG (72 h, time 3 day) of 87 mg/dL and a TP (72 h, time 3 day) of 5.5 g/dL. For the same molecule, the gamma-GTP (72 h, time 3 day) was 1 IU/L, the TERMINAL_BW ([…], time 7 day) was 275.6 g and the TERMINAL_BW ([…], time 14 day) was 312 g. For the same molecule, the TERMINAL_BW ([…], time 28 day) was 399.3 g, the APTT ([…], time 7 day) was 16.9 s and the Bas ([…], time 7 day) was 0%. It also gave an Eos ([…], time 7 day) of 1%, a Fbg ([…], time 7 day) of 302.6 mg/dL and a Hb ([…], time 7 day) of 13.6 g/dL. The Ht ([…], time 7 day) was 40.4%, the Lym ([…], time 7 day) was 79.8% and the MCH ([…], time 7 day) was 20.9 pg. The MCHC ([…], time 7 day) was 33.7%, the MCV ([…], time 7 day) was 62.2 fL and the Mono ([…], time 7 day) was 2.2%. The Neu ([…], time 7 day) was 16.2%, the PT ([…], time 7 day) was 13.1 s and the Plat ([…], time 7 day) was 119.8 x10_4/uL. It also gave an RBC ([…], time 7 day) of 649.4 x10_4/ul, a Ret ([…], time 7 day) of 6.1% and a WBC ([…], time 7 day) of 120 x10_2/uL. The APTT ([…], time 14 day) was 21 s, the Bas ([…], time 14 day) was 0% and the Eos ([…], time 14 day) was 1%. For the same molecule, the Fbg ([…], time 14 day) was 297 mg/dL, the Hb ([…], time 14 day) was 14.7 g/dL and the Ht ([…], time 14 day) was 43.8%. For the same molecule, the Lym ([…], time 14 day) was 79%, the MCH ([…], time 14 day) was 20.6 pg and the MCHC ([…], time 14 day) was 33.5%. It also gave an MCV ([…], time 14 day) of 61.4 fL, a Mono ([…], time 14 day) of 1.8% and a Neu ([…], time 14 day) of 17.4%. For the same molecule, the PT ([…], time 14 day) was 13.3 s, the Plat ([…], time 14 day) was 135 x10_4/uL and the RBC ([…], time 14 day) was 713.4 x10_4/ul. It also gave a Ret ([…], time 14 day) of 4.4%, a WBC ([…], time 14 day) of 106.9 x10_2/uL and an APTT ([…], time 28 day) of 17.7 s. The Bas ([…], time 28 day) was 0.4%, the Eos ([…], time 28 day) was 1.2% and the Fbg ([…], time 28 day) was 283 mg/dL. The Hb ([…], time 28 day) was 16.2 g/dL, the Ht ([…], time 28 day) was 47.2% and the Lym ([…], time 28 day) was 83.6%. For the same molecule, the MCH ([…], time 28 day) was 19.6 pg, the MCHC ([…], time 28 day) was 34.4% and the MCV ([…], time 28 day) was 57 fL. It also gave a Mono ([…], time 28 day) of 2%, a Neu ([…], time 28 day) of 12.6% and a PT ([…], time 28 day) of 13.3 s. It also gave a Plat ([…], time 28 day) of 102.8 x10_4/uL, an RBC ([…], time 28 day) of 829 x10_4/ul and a Ret ([…], time 28 day) of 2.2%. For the same molecule, the WBC ([…], time 28 day) was 110.1 x10_2/uL, the KIDNEY_L ([…], time 7 day) was 1.1 g and the KIDNEY_R ([…], time 7 day) was 1.1 g. For the same molecule, the KIDNEY_TOTAL ([…], time 7 day) was 2.2 g, the KIDNEY_L ([…], time 14 day) was 1.2 g and the KIDNEY_R ([…], time 14 day) was 1.2 g. It also gave a KIDNEY_TOTAL ([…], time 14 day) of 2.4 g, a KIDNEY_L ([…], time 28 day) of 1.4 g and a KIDNEY_R ([…], time 28 day) of 1.3 g. The KIDNEY_TOTAL ([…], time 28 day) was 2.7 g, the LIVER ([…], time 7 day) was 13.9 g and the LIVER ([…], time 14 day) was 13.4 g. It also gave an LIVER ([…], time 28 day) of 16.6 g, an A/G ([…], time 7 day) of 0.9 and an ALP ([…], time 7 day) of 1346.8 IU/L. For the same molecule, the ALT ([…], time 7 day) was 41.2 IU/L, the AST ([…], time 7 day) was 66 IU/L and the BUN ([…], time 7 day) was 16.6 mg/dL. For the same molecule, the CRE ([…], time 7 day) was 0.2 mg/dL, the Ca ([…], time 7 day) was 10.9 mg/dL and the Cl ([…], time 7 day) was 103.2 meq/L. It also gave a DBIL ([…], time 7 day) of 0.012 mg/dL, a GLC ([…], time 7 day) of 182.4 mg/dL and an IP ([…], time 7 day) of 7.3 mg/dL. The K ([…], time 7 day) was 3.9 meq/L, the LDH ([…], time 7 day) was 88.4 IU/L and the Na ([…], time 7 day) was 141.4 meq/L. It also gave a PL ([…], time 7 day) of 140.2 mg/dL, an RALB ([…], time 7 day) of 2.6 g/dL and a TBIL ([…], time 7 day) of 0.048 mg/dL. For the same molecule, the TC ([…], time 7 day) was 66.4 mg/dL, the TG ([…], time 7 day) was 134.8 mg/dL and the TP ([…], time 7 day) was 5.7 g/dL. It also gave a gamma-GTP ([…], time 7 day) of 1 IU/L, an A/G ([…], time 14 day) of 0.8 and an ALP ([…], time 14 day) of 1516 IU/L. The ALT ([…], time 14 day) was 40 IU/L, the AST ([…], time 14 day) was 69.8 IU/L and the BUN ([…], time 14 day) was 17.4 mg/dL. For the same molecule, the CRE ([…], time 14 day) was 0.3 mg/dL, the Ca ([…], time 14 day) was 10.7 mg/dL and the Cl ([…], time 14 day) was 105.2 meq/L. The DBIL ([…], time 14 day) was 0.006 mg/dL, the GLC ([…], time 14 day) was 184 mg/dL and the IP ([…], time 14 day) was 7 mg/dL. The K ([…], time 14 day) was 4.1 meq/L, the LDH ([…], time 14 day) was 88.8 IU/L and the Na ([…], time 14 day) was 142.2 meq/L. It also gave a PL ([…], time 14 day) of 138.2 mg/dL, an RALB ([…], time 14 day) of 2.7 g/dL and a TBIL ([…], time 14 day) of 0.046 mg/dL. It also gave a TC ([…], time 14 day) of 69.8 mg/dL, a TG ([…], time 14 day) of 89 mg/dL and a TP ([…], time 14 day) of 5.8 g/dL. It also gave a gamma-GTP ([…], time 14 day) of 1 IU/L, an A/G ([…], time 28 day) of 0.8 and an ALP ([…], time 28 day) of 1153.4 IU/L. The ALT ([…], time 28 day) was 35.4 IU/L, the AST ([…], time 28 day) was 63.6 IU/L and the BUN ([…], time 28 day) was 18.4 mg/dL. For the same molecule, the CRE ([…], time 28 day) was 0.3 mg/dL, the Ca ([…], time 28 day) was 10.8 mg/dL and the Cl ([…], time 28 day) was 104.6 meq/L. It also gave a DBIL ([…], time 28 day) of 0.014 mg/dL, a GLC ([…], time 28 day) of 180.2 mg/dL and an IP ([…], time 28 day) of 6.5 mg/dL. It also gave a K ([…], time 28 day) of 4 meq/L, an LDH ([…], time 28 day) of 72.6 IU/L and a Na ([…], time 28 day) of 142 meq/L. For the same molecule, the PL ([…], time 28 day) was 151.8 mg/dL, the RALB ([…], time 28 day) was 2.8 g/dL and the TBIL ([…], time 28 day) was 0.058 mg/dL. For the same molecule, the TC ([…], time 28 day) was 73.4 mg/dL, the TG ([…], time 28 day) was 166.2 mg/dL and the TP ([…], time 28 day) was 6.2 g/dL. For the same molecule, the gamma-GTP ([…], time 28 day) was 1.2 IU/L.
